From patent US11339185B2, “Cyclic dinucleotides as anticancer agents” (Bristol-Myers Squibb Company, priority 2018, dated 2022) come the findings set out here.

For test [1], the system named is THP1-Dual cells, NF-κB pathway. The test is described as follows: STING THP1 Reporter Assay, NF-κB pathway (SEAP, QUANTI-Blue). The class given is cell-based. The conditions noted are these: 10% human plasma, 20 hours, SEAP readout (OD620), 100% activation = 100 μM cGAMP, read-out: THP1 Reporter Assays EC50 (μM) NFkB. Put shortly: (§1)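 THP1-Dual cells (15,000/well) in RPMI with 10% human plasma exposed to serially diluted compounds (top final 100 μM) for 20 h at 37 °C. IRF activity read as secreted Lucia luciferase luminescence (QUANTI-Luc), NF-κB as SEAP OD620 (QUANTI-Blue, 2 h); normalised to 100 μM cGAMP (100%) and DMSO baseline.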
(In general: A reporter such as luciferase makes a cellular process visible.)

In test [2] the test system is THP1-Dual cells, IRF pathway (IRF3). The test is described as follows: STING THP1 Reporter Assay, IRF pathway (secreted Lucia luciferase, QUANTI-Luc). The test is classed as cell-based. The conditions noted are these: 10% human plasma, 20 hours, luciferase readout, 100% activation = 100 μM cGAMP, read-out: THP1 Reporter Assays EC50 (μM) IRF3. Put shortly: as §1
Test [3] concerns the target T1, STING WT: His-TVMV-S-hSTING(155-341)-H232R (Homo sapiens, UniProt Q86WV6, H232R).
T1 construct: STING WT: His-TVMV-S-hSTING(155-341)-H232R
The test is described as follows: STING HTRF binding assay (time resolved FRET competition), STING WT. As to conditions: 20 nM His-tagged STING WT cytoplasmic domain, 200 nM fluorescein-labeled cGAMP analog probe, one hour; read-out: HTRF Binding Assays IC50 (μM) WT. The method in brief:
(§2)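 TR-FRET competition: 20 nM His-tagged STING cytoplasmic domain with 2.5 nM Tb-anti-His and fluorescein-cGAMP analog probe (200 nM for WT, 40 nM for AQ), 1 h in PBS/0.005% Tween-20/0.1% BSA. Background-subtracted 520/495 ratios were converted to % inhibition at 11 concentrations. IC50 came from a 4-parameter logistic fit.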

For test [4], the target named is T2, STING AQ: His-TVMV-S-hSTING(155-341)-G230A-R293Q (Homo sapiens, UniProt Q86WV6, G230A/H232R/R293Q).
T2 construct: STING AQ: His-TVMV-S-hSTING(155-341)-G230A-R293Q
The test is described as follows: STING HTRF binding assay (time resolved FRET competition), STING AQ. As to conditions: 20 nM His-tagged STING AQ cytoplasmic domain, 40 nM fluorescein-labeled cGAMP analog probe, one hour; read-out: HTRF Binding Assays IC50 (μM) AQ. The method in brief: as §2
A general note: TR-FRET usually uses a lanthanide donor and a delayed reading to cut background.

T2 sequence (Q86WV6 with tags, fused parts or gaps G230A/H232R/R293Q): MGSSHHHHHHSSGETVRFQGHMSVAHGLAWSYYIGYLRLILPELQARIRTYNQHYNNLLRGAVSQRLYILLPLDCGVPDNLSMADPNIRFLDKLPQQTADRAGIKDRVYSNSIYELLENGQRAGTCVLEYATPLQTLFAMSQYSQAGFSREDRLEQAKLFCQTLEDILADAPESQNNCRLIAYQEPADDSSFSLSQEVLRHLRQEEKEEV
T1 sequence (Q86WV6 with tags, fused parts or gaps H232R): as the sequence (Q86WV6 with tags, fused parts or gaps G230A/H232R/R293Q) above, with A99G, Q162R counted along it

By EC50 is commonly meant the concentration at which the effect is half-maximal. Broadly, the IC50 is the concentration needed to halve the response being measured. On to `Nc1ncnc2c1ncn2[C@@H]1O[C@@H]2COP(=O)(S)OC[C@@H]3[C@@H](COP(=O)(S)O[C@H]2[C@H]1F)C[C@H]3n1cnc2c(=O)[nH]cnc21` (single isomer, unassigned) [Example 22-4], for which the figures for the EC50 in test [1] and in test [2] were 91.7 µM and 13 µM, respectively. Besides, the concentration for half-maximal inhibition (IC50) in test [3] is 0.12 µM; in test [4], 0.01 µM.
